The text below walks through data of ChEMBL document CHEMBL1201862, “PubChem BioAssay data set” (2004).

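Briefly, cells in 96-well plates were exposed to five compound concentrations for 48 h, and endpoints were estimated by linear interpolation. GI50 marks 50% less growth.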 Active and inactive are the calls of the source. Rule as the data show it: active = GI50 up to about 1.1 µM and inactive = higher.

Test systems include NCI-H522; UACC-62; BT-549; T47D; SR; KM12; LOX IMVI; HOP-62; SK-MEL-5; 786-0; SK-MEL-28; K562; COLO 205; NCI-H23; RPMI-8226; HCT-15; PC-3; SK-OV-3; A549; M14.
What all share (assay): NCI anticancer screen, dose series, 48 h

For `COc1ccc(Nc2nc3ccccc3nc2C(=O)O)cc1OC`, the GI50 with NCI-H522 was > 100 µM (inactive); with UACC-62, 60.8 µM (inactive); in the assay on BT-549, 52.7 µM (inactive); with T47D, 33.8 µM (inactive); in the assay on SR, > 100 µM (inactive); with KM12, 66.8 µM (inactive). The GI50 in the assay with LOX IMVI was 99.8 µM (inactive); in the assay on HOP-62 it was 34.4 µM (inactive); in the assay with SK-MEL-5, 28.5 µM (inactive); in the assay with 786-0 it was 73.6 µM (inactive); with SK-MEL-28, 50.2 µM (inactive); in the assay on K562, > 100 µM (inactive). The GI50 in the assay on COLO 205 is > 100 µM (inactive); with NCI-H23 it was 80.4 µM (inactive); in the assay on RPMI-8226, 65.8 µM (inactive); with HCT-15, 50.7 µM; in the assay with PC-3, > 100 µM (inactive); with SK-OV-3, 64.4 µM (inactive). Further, the GI50 in the assay with A549 and with M14 was > 100 µM (inactive) each time.

With `CCOC(=O)C(=[N+]=[N-])C(=O)C[N+]12CCN(CC1)CC2`, the GI50 in the assay on NCI-H522, in the assay with UACC-62, in the assay on BT-549, with T47D, in the assay with SR and with KM12 was > 100 µM (inactive) throughout. Also, the GI50 in the assay on LOX IMVI, with HOP-62, with SK-MEL-5, in the assay with 786-0, in the assay on SK-MEL-28 and in the assay with K562 was > 100 µM (inactive) each time. Also, the GI50 in the assay on COLO 205 is > 100 µM (inactive); with NCI-H23 it was > 100 µM (inactive); in the assay with RPMI-8226 it was > 100 µM (inactive); with HCT-15, greater than 100 µM; with PC-3 it was > 100 µM (inactive); in the assay with SK-OV-3, > 100 µM (inactive). The GI50 in the assay with A549 and with M14 was > 100 µM (inactive) throughout.

In the case of `CCN(CC)c1ccc2cc(-c3nnc(-c4ccccc4)o3)c(=O)oc2c1`, the GI50 with NCI-H522 was 28.8 µM (inactive); in the assay with UACC-62, 36.6 µM (inactive); with BT-549 it was > 57.1 µM (inactive); with T47D, 23.4 µM (inactive); in the assay on SR it was 6.64 µM (inactive); in the assay with KM12, 46.7 µM (inactive). The GI50 is 29.6 µM (inactive) in the assay with LOX IMVI; 17.6 µM (inactive) in the assay with HOP-62; 29.5 µM (inactive) in the assay with SK-MEL-5; 17 µM (inactive) in the assay on 786-0; > 85.3 µM (inactive) in the assay with SK-MEL-28; 1.4 µM (inactive) with K562. Besides, the GI50 in the assay with COLO 205 is 20.3 µM (inactive); with NCI-H23 it was 56.9 µM (inactive); in the assay with RPMI-8226, 12.1 µM (inactive); in the assay on HCT-15, 6.35 µM; in the assay with PC-3, 30.8 µM (inactive); in the assay with SK-OV-3 it was 14.7 µM (inactive). The GI50 in the assay on A549 was 16.4 µM (inactive); in the assay with M14, 32.1 µM (inactive).

In the case of `Cc1ccc(C2=NOC(=O)[C@@H]3CCCC[C@@H]23)cc1`, the GI50 in the assay on NCI-H522 was > 100 µM (inactive); in the assay with UACC-62, > 100 µM (inactive); in the assay on BT-549, > 100 µM (inactive); in the assay on T47D it was 76.4 µM (inactive); in the assay on SR, > 100 µM (inactive); in the assay with KM12 it was > 100 µM (inactive). For the same compound, the GI50 with LOX IMVI, in the assay with HOP-62, in the assay with SK-MEL-5, in the assay on 786-0, in the assay with SK-MEL-28 and with K562 was > 100 µM (inactive) in each case. Further, the GI50 in the assay on COLO 205 is > 100 µM (inactive); with NCI-H23, > 100 µM (inactive); in the assay with RPMI-8226, > 100 µM (inactive); with HCT-15, greater than 100 µM; in the assay on PC-3, > 100 µM (inactive); in the assay with SK-OV-3, > 100 µM (inactive). Further, the GI50 in the assay on A549 is > 10 µM (inactive); in the assay with M14, > 100 µM (inactive).

`O=P1(N(CCCl)CCCl)Oc2ccc(Cl)cc2C(C(Cl)(Cl)Cl)c2cc(Cl)ccc2O1` (centres undefined): the GI50 was 8.59 µM (inactive) with NCI-H522; 12.6 µM (inactive) with UACC-62; 29.8 µM (inactive) in the assay on BT-549; 20 µM (inactive) with T47D; 3.94 µM (inactive) in the assay on SR; 13.1 µM (inactive) in the assay on KM12. Besides, the GI50 with LOX IMVI was 15.2 µM (inactive); in the assay with HOP-62, 11.8 µM (inactive); in the assay on SK-MEL-5, 11.4 µM (inactive); with 786-0, 12.4 µM (inactive); in the assay on SK-MEL-28, 35.2 µM (inactive); in the assay with K562, 3.72 µM (inactive). For the same compound, the GI50 in the assay on COLO 205 was 12.9 µM (inactive); in the assay with NCI-H23, 12.8 µM (inactive); with RPMI-8226 it was 3.77 µM (inactive); in the assay with HCT-15 it was 9.57 µM; in the assay on PC-3, 4.38 µM (inactive); in the assay with SK-OV-3, 22.5 µM (inactive). Also, the GI50 in the assay on A549 was 5.4 µM (inactive); in the assay with M14, 18.8 µM (inactive).

For the compound `CCc1nc(Cl)nc(Cl)c1Cl`, the GI50 with NCI-H522 was 0.0494 µM (active); with UACC-62, 6.44 µM (inactive); in the assay on BT-549 it was 2.01 µM (inactive); in the assay with T47D, 5.55 µM (inactive); with SR, 0.416 µM (active); in the assay with KM12 it was 3.48 µM (inactive). Further, the GI50 in the assay with LOX IMVI is 0.0826 µM (active); in the assay on HOP-62 it was 8.05 µM (inactive); with SK-MEL-5 it was 2.56 µM (inactive); in the assay on 786-0, 0.415 µM (active); in the assay with SK-MEL-28 it was 4.95 µM (inactive); in the assay with K562 it was 0.107 µM (active). Further, the GI50 in the assay on COLO 205 was 0.284 µM (active); in the assay with NCI-H23 it was 1.08 µM (active); with RPMI-8226, 0.0116 µM (active); with HCT-15, 0.318 µM; in the assay with PC-3 it was 1.26 µM (inactive); in the assay with SK-OV-3, 6.41 µM (inactive). In addition, the results for the GI50 with A549 and in the assay with M14 were 2.63 µM (inactive) and 1.28 µM (inactive), respectively.

As for `c1ccc(-c2c(-c3[nH]c4ccccc4c3-c3ccccc3)[nH]c3ccccc23)cc1`, the GI50 with NCI-H522 was 3.18 µM (inactive); in the assay on UACC-62, 9.98 µM (inactive); in the assay with BT-549 it was 4.56 µM (inactive); in the assay with T47D it was 2.53 µM (inactive); in the assay with SR it was 2.74 µM (inactive); with KM12 it was 3.03 µM (inactive). Also, the GI50 in the assay with LOX IMVI was 1.92 µM (inactive); in the assay on HOP-62, 2.55 µM (inactive); with SK-MEL-5, 4.16 µM (inactive); in the assay on 786-0, 2.07 µM (inactive); with SK-MEL-28, 11.4 µM (inactive); in the assay with K562, 4.03 µM (inactive). Further, the GI50 was 1.91 µM (inactive) in the assay with COLO 205; 2.63 µM (inactive) in the assay on NCI-H23; 2.94 µM (inactive) in the assay with RPMI-8226; 4.32 µM in the assay with HCT-15; 3.6 µM (inactive) in the assay on PC-3; 8.15 µM (inactive) in the assay with SK-OV-3. In addition, the GI50 was 3.5 µM (inactive) with A549 and 3.54 µM (inactive) in the assay with M14.

`O=C(CC(=O)Nc1ccccc1Cl)NNC(c1cc(/N=N/c2ccc(Br)cc2)ccc1O)P(O)O` (centres undefined): the GI50 with NCI-H522 is 2.97 µM (inactive); in the assay on UACC-62 it was 0.964 µM (active); with BT-549, 2.33 µM (inactive); with T47D, 2.12 µM (inactive); in the assay on SR, 0.766 µM (active); in the assay with KM12, 2.95 µM (inactive). The GI50 in the assay on LOX IMVI is 1.07 µM (active); with HOP-62, 3.88 µM (inactive); with SK-MEL-5 it was 1.19 µM (inactive); in the assay on 786-0, 0.565 µM (active); in the assay with SK-MEL-28 it was 7.43 µM (inactive); with K562 it was 2.4 µM (inactive). Moreover, the GI50 in the assay on COLO 205 was 3.89 µM (inactive); with NCI-H23 it was 2.53 µM (inactive); in the assay with RPMI-8226, 2.84 µM (inactive); in the assay with HCT-15, 0.594 µM; with PC-3, 0.521 µM (active); with SK-OV-3 it was 3.03 µM (inactive). Besides, the values for the GI50 in the assay on A549 and with M14 were 3.82 µM (inactive) and 0.61 µM (active), respectively.

On to `COc1cc(I)c2c3c1OC1C34CCN(C)C(C2)C4=CC(I)C1(OC)OC` (centres undefined), for which the GI50 in the assay on NCI-H522 was 21.2 µM (inactive); in the assay on UACC-62, 19.2 µM (inactive); with BT-549, 23.9 µM (inactive); in the assay with T47D, 14.6 µM (inactive); in the assay on SR, 16.1 µM (inactive); in the assay on KM12 it was 17.5 µM (inactive). Further, the GI50 in the assay with LOX IMVI was 19.6 µM (inactive); in the assay with HOP-62, 19.1 µM (inactive); in the assay on SK-MEL-5, 17.1 µM (inactive); in the assay with 786-0, 20.3 µM (inactive); with SK-MEL-28, 18.2 µM (inactive); in the assay with K562, 20.7 µM (inactive). Besides, the GI50 in the assay with COLO 205 was 19.4 µM (inactive); with NCI-H23, 24.5 µM (inactive); in the assay on RPMI-8226, 19.6 µM (inactive); in the assay with HCT-15, 25.5 µM; in the assay with PC-3, 24.4 µM (inactive); in the assay on SK-OV-3, 24.8 µM (inactive). For the same compound, the GI50 in the assay on A549 is 29.6 µM (inactive); with M14, 37.4 µM (inactive).

With `FC(F)(F)c1ccc2c(c1)nc(Cc1ccc(Cl)c(Cl)c1)n2CC1CCCN2CCCCC12` (centres undefined), the GI50 in the assay with NCI-H522 is 14.2 µM (inactive); in the assay on UACC-62, 15.9 µM (inactive); in the assay with BT-549, 28.6 µM (inactive); in the assay on T47D, 29 µM (inactive); in the assay with SR it was 23.2 µM (inactive); in the assay on KM12, 24.4 µM (inactive). Further, the GI50 is 16.3 µM (inactive) with LOX IMVI; 31 µM (inactive) with HOP-62; 16.4 µM (inactive) in the assay with SK-MEL-5; 16.2 µM (inactive) with 786-0; 21.1 µM (inactive) in the assay with SK-MEL-28; 32.5 µM (inactive) in the assay with K562. The GI50 in the assay with COLO 205 was 16.1 µM (inactive); in the assay on RPMI-8226, 57 µM (inactive); in the assay with HCT-15, 30.8 µM; in the assay on PC-3, 30.5 µM (inactive); with SK-OV-3, 31.3 µM (inactive); with A549 it was 18.1 µM (inactive). Besides, the GI50 with M14 is 12.4 µM (inactive).
